Results reported in patent US20220259213A1, “PYRROLOPYRAZOLE DERIVATIVES, PREPARATION METHOD THEREOF AND APPLICATION THEREOF IN MEDICINE” (SHANGHAI MEDICILON INC., priority 2019, published 2022).

Target: T1, H+/K+ATPase (Oryctolagus cuniculus, UniProt P27112)
T1 construct: The stomach tissue of the rabbit was separated; from tissue; host or cells: rabbit stomach (fundus) mucosa; membrane pellet obtained by differential and Ficoll centrifugation
Assay: determination of compounds' inhibition of H+/K+ATPase enzyme activity (malachite green)
Format: biochemical
Conditions: enzyme extracted from rabbit stomach mucosa; 500 μM ATP; pH 6.5; 37° C.; OD 620 nm; read-out: IC50(μM) inhibition rate (IC50) of H+/K+ATPase enzyme activity
Description: Test example: determination of compounds' inhibition of H+/K+ATPase enzyme activity
The following experiment is used to determine the inhibitory effect of the compound of the present invention on the H+/K+ATPase enzyme activity.
Enzyme working solution: titrating the enzyme, diluting the enzyme with buffer solution 1, and taking 5 μl of the diluted solution into 50 μl reaction system.
ATP solution: 100 mM ATP was diluted to 5 mM with no K+buffer, and 5 μl of the diluted solution was added to the 50 μl reaction system, that is, the final concentration of ATP was 500 μM.
MLG color development liquid: 0.12% MLG, 7.5% ammonium molybdate, 11% Tween-20 was mixed as 100:25:2, and adding 15 μl of the mixture into each well during detection.
Buffer 1: 5 mM Tris-HCl pH 6.5, 5 mM magnesium chloride (magnesium chloride), 10 μM valinomycin (valinomycin).
Buffer 2: 50 mM Tris-HCl pH 6.5, 5mM magnesium chloride (magnesium chloride), 10 μM valinomycin (valinomycin), 20 mM KCl.
3.1. H^+/K^+ ATPase enzyme extraction
(1) The stomach tissue of the rabbit was separated, and the blood was washed with tap water, food residue.
(5) After homogenization, if there were larger tissue particles, they could be removed by centrifugation (600 g, 10 min), and then the supernatant was transfered to a clean centrifuge tube. After centrifugation at 20000 g for 30 minutes, then the supernatant was transferred to a clean centrifuge tube at 100000 g for 90 minutes, and the precipitate was collected.
(7) Resuspending the precipitate with homogenization buffer, blowing uniformly, and the protein concentration was measured by Bradford. Freezing in tubes at −80° C. for later use.
3.2. H+/K+ATPase activity experiment
(1) Adding 35 μl of reaction buffer to each experimental well, and then adding 35 μl of buffer 1.
(2) Adding 5 μl buffer 1 containing 10% DMSO to the whole enzyme and buffer well.
(3) Adding 5 μl of 10× compound working solution to the compound well and mixing well.
(4) Adding 5 μl of buffer 1 to the buffer well.
(5) Adding 5 μl of 10× enzyme working solution to the remaining wells, mixing and incubating at 37° C. for 30minutes.
(6) Adding 5 μl of 10×ATP working solution to all experimental wells, mixing and incubating at 37° C. for 20 min.
(7) Adding 15 μl MLG chromogenic solution to all experimental wells, and uniformly mixing and incubating at room temperature for 5-30 min.
(8) The reading number of 620 nm was detected by an M5 instrument.
The inhibition rate is calculated with the following formula:
Inhibition rate (IC50)=[OD (sample well)−OD (full enzyme well containing potassium chloride)]/[(OD (full enzyme well containing potassium chloride)−(OD (full enzyme well without potassium chloride)]×100%

T1 sequence (P27112 whole entry): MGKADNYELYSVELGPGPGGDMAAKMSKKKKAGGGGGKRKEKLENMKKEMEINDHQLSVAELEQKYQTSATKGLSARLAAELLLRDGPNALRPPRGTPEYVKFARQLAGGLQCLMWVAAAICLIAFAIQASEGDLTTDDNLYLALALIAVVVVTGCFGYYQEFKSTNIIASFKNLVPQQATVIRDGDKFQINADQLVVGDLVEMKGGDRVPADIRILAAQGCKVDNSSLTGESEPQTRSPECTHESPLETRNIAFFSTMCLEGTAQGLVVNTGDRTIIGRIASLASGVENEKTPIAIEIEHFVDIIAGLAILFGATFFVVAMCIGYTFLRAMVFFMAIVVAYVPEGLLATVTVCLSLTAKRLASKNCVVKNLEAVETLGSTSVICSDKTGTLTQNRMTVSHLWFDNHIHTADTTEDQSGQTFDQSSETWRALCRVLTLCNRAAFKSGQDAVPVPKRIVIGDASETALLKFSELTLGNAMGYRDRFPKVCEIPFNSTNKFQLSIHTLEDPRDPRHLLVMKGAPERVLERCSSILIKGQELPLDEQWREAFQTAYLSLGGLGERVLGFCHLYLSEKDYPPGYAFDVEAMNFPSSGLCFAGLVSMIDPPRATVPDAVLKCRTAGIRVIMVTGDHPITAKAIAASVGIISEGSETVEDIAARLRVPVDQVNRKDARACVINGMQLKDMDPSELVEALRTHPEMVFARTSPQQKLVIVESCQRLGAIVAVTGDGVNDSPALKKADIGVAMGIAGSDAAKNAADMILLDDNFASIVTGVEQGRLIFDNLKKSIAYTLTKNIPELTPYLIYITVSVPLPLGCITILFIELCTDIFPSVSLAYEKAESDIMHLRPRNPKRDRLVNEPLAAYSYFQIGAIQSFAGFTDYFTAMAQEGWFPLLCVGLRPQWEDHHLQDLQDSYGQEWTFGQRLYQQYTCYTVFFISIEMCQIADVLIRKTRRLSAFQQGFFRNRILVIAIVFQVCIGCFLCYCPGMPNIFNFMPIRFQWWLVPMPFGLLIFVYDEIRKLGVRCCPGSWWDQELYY
T1 sequence (P18597 whole entry partner): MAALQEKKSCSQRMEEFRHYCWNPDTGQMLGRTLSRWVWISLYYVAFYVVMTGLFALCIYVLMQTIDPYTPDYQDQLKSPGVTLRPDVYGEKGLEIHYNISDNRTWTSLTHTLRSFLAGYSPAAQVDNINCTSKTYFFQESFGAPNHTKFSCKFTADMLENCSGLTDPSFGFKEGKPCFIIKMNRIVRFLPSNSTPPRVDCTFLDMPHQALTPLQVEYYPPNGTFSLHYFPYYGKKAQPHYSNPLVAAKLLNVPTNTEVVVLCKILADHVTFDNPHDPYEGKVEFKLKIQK

| Structure (SMILES) | IC50 [µM] |
| --- | --- |
| COc1ccc(Cn2nc3c(c2-c2ccccc2F)CN(C)C3)cn1 [Example 5, 3-(2-fluorobenzeneyl)-2-((6-methoxypyridin-3-yl)methyl)-5-methyl-2,4,5,6-tetrahydropyrrolo[3,4-c]pyrazole] | 0.365 |
| CN1Cc2nn(Cc3cccnc3)c(-c3ccc4c(c3)CCO4)c2C1 [Example 1, 3-(2,3-dihydrobenzofuran-5-methyl)-5-methyl-2-(pyridin-3-ylmethyl)-2,4,5,6-tetrahydropyrrole[3,4-c]pyrazole] | 3.55 |
| CN1Cc2nn(Cc3cccnc3)c(-c3ccc4occc4c3)c2C1 [Example 2, 3-(benzofuran-5-yl)-5-methyl-2-(pyridin-3-ylmethyl)-2,4,5,6-tetrahydropyrrole[3,4-c]pyrazole] | 1.38 |
| CN1Cc2nn(Cc3cccnc3)c(-c3ccccc3F)c2C1 [Example 4, (2-fluorophenyl)-5-methyl-2-(pyridin-3-ylmethyl)-2,4,5,6-tetrahydropyrrole[3,4-c]pyrazole] | 0.674 |
| CN1Cc2nn(Cc3cccnc3)c(-c3ccc4[nH]cnc4c3)c2C1 [Example 3, (5-methyl-2-(pyridin-3-ylmethyl)-2,4,5,6-tetrahydropyrrole[3,4-c]pyrazol-3-yl)-1H-benzo[d]imidazole] | 24 |
